Laboratory results published in patent US12509460B2 (Skyhawk Therapeutics, Inc., priority 2019, dated 2025).
Where “and” joins values, the source holds several entries; their conditions need not be identical. Equal entries are not always repeated. Where two headings read alike, the source gives them in different places.

Experiments:
[1] = system: SMN protein in spinal muscular atrophy (SMA) patient fibroblasts (GM03813, Coriell); assay: SMN protein assay, Mesoscale Discovery (MSD); format: cell-based, human; conditions: for EC50: read-out: SMN2 protein EC50
In short: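 SMA patient fibroblasts (GM03813) seeded at 7000 cells/well and exposed to compound at 2.5 μM to 0.6 nM for 48 hours. Lysates assayed for SMN by MSD immunoassay, with absolute SMN amount calculated from a per-plate SMN standard curve (1 μg/ml to 19.5 pg/ml).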

[2] = Quantitative splicing assay (HTT), qPCR; format: cell-based, human; conditions: Homo sapiens, GM04724, 24 h, GM04724 lymphoblasts, qPCR, read-out: HTT Splicing: E49-50 EC50
Procedure: Example A9: Quantitative Splicing Assay (HTT)
GM04724 (CAG 70/20) Huntington's disease patient lymphoblasts (Coriell) are plated in 96-well v-bottom plates at 50,000 cells/well. Immediately after plating, cells are dosed with compound for 24 h at concentrations ranging from 2.5 uM to 0.15 nM (0.1% DMSO). Treated cells are lysed and cDNA synthesized using the Fast Advanced Cells-to-Ct kit (Thermofisher A35378) according to the manufacturer's instructions. 2 uL of each cDNA are used in qPCR reactions to confirm the compound-induced inclusion of a cryptic exon within intron 49 of the Huntingtin (HTT) transcripts. The qPCR reactions are prepared in 384-well plates in 10 uL volume, using TagMan™ Fast Advanced Master Mix [ThermoFisher, 4444965] with primers and probes shown in the table below. Reactions are run in a Quant studio 6 qPCR instrument with default settings.

[3] = system: MDR1-MDCK cell monolayers; assay: Blood-brain-barrier (BBB) penetration potential via MDCK-MDR1 permeability assay
Procedure: (§1) Example A13: Assessment of Blood-Brain-Barrier (BBB) Penetration Potential Via an MDCK-MDR1 Permeability Assay
(§2) The permeability of compounds is assessed for BBB penetration potential by use of an MDCK-MDR1 assay (Catalog EA203) performed by Absorption Systems, Exton PA.
(§3) Experimental Procedure: MDR1-MDCK cell monolayers are grown to confluence on collagen-coated, microporous membranes in 12-well assay plates. The permeability assay buffer is Hanks' balanced salt solution containing 10 mM HEPES and 15 mM glucose at a pH of 7.4. The buffer in the receiver chamber also contained 1% bovine serum albumin. The dosing solution concentration is 5 μM of test article in the assay buffer. Cell monolayers are dosed on the apical side (A-to-B) or basolateral side (B-to-A) and incubated at 37° C. with 5% CO2 in a humidified incubator. Samples are taken from the donor and receiver chambers at 120 minutes. Each determination is performed in duplicate. The flux of lucifer yellow is also measured post-experimentally for each monolayer to ensure no damage is inflicted to the cell monolayers during the flux period. All samples are assayed by LC-MS/MS using electrospray ionization.
(§4) The apparent permeability (Papp) and percent recovery are calculated as follows:
(§5) Analytical Method: Liquid Chromatography. Column: Waters ACQUITY UPLC BEH Phenyl 30 ×2.1 mm, 1.7 μm; M.P. Buffer. 25 mM ammonium formate buffer, pH 3.5; Aqueous Reservoir (A): 90% water, 10% buffer, Organic Reservoir (B): 90% acetonitrile, 10% buffer, Flow Rate: 0.7 mL/minute; Gradient Program:
(§6) • Total Run Time: 1.00 minute • Autosampler. 2 μL injection volume • Wash1: water/methanol/2-propanol:1/1/1; with 0.2% formic acid • Wash2: 0.1% formic acid in water • Brain Penetration • Potential Classification: A-B Papp≥3.0 and Efflux Ratio <3.0: High • A-B Papp≥3.0 and 10≥Efflux Ratio >3.0: Moderate • A-B Papp≥3.0 and Efflux Ratio≥10: Low • A-B Papp<3.0: Low

[4] = system: MDR1 (P-gp); assay: as above; conditions: dog; for Papp A→B at 120 min, 5 μM: MDCK-MDR1, pH 7.4, MDCK-MDR1: Papp A-B; for Papp B→A at 120 min, 5 μM: MDCK-MDR1, pH 7.4, MDCK-MDR1: Papp B-A
Procedure: as §1, §2, §3, §4, §5, §6

[5] = system: MDR1; assay: as above; conditions: dog, MDCK-MDR1, pH 7.4, MDCK-MDR1: Efflux
Procedure: as §1, §2, §3, §4, §5, §6

[6] = system: mHTT protein in GM04724 (CAG 70/20) Huntington's disease patient lymphoblast cells; assay: mHTT protein assay, 2B7-MW1 assay via Mesoscale Discovery (MSD); format: cell-based, human
In short: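 Patient lymphoblasts treated 48 h with compound from 10 μM to 0.6 nM. mHTT quantified by MSD 2B7-MW1 immunoassay, whose signal depends on polyQ expansion and HTT size. Viability measured on a replicate plate by CellTiter Glo.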

[7] = system: SMN FL and SMN Δ7 in spinal muscular atrophy (SMA) patient fibroblasts (GM03813, Coriell); assay: Quantitative splicing assay (SMN), qPCR; format: cell-based, human; conditions: Homo sapiens, Fibroblast, 24 h, read-out: SMN2 Splicing FL EC50
Procedure: Spinal muscular atrophy (SMA) patient fibroblasts (GM03813, Coriell) are plated in 96-well plates at 50,000 cells/well. […] Treated cells are lysed and cDNA synthesized using the Fast Advanced Cells-to-Ct kit (Thermofisher A35378) according to the manufacturer's instructions. 2 μL of each cDNA are used in qPCR reactions. […] Reactions are run in a Quant Studio 6 qPCR instrument with default settings.

[8] = SMA patient fibroblasts GM03813, 48 hours, MSD
[9] = GM04724 Huntington's disease patient lymphoblasts
[10] = SMA patient fibroblasts GM03813, 24 h, qPCR
[11] = GM04724 (CAG 70/20) Huntington's disease patient lymphoblasts
[12] = SMA patient fibroblasts (GM03813), 48 hours
[13] = SMA patient fibroblasts (GM03813)

Structure (SMILES)	EC50 [1, 8]	MDCK-MDR1: % Recov A-B ([3]; A-B direction)	MDCK-MDR1: % Recov B-A ([3]; B-A direction)	Papp A→B at 120 min, 5 μM ([4]; A-B direction)	Papp B→A at 120 min, 5 μM ([4]; B-A direction)	efflux ratio at 120 min, 5 μM ([5]; efflux ratio)	EC50 [6, 9]	EC50 [7, 10]	further results
CN(c1ccc(-c2cc3c(=O)[nH]ccc3s2)nn1)[C@@H]1C[C@H]2CC[C@H](N2)[C@@H]1F [Compound 6A, 2-(6-(((1S,2S,3R,5R)-2-fluoro-8-azabicyclo[3.2.1]octan-3-yl)(methyl)amino)pyridazin-3-yl)thieno[3,2-c]pyridin-4(5H)-one]	51 to 100 nM	90% and 95%	91% and 82%	0.09 ×10⁻⁶ cm/s	6.69 ×10⁻⁶ cm/s	74	–	–	SMN2 protein EC50 [1, 8]: E (501 ≤ E ≤ 10.000); EC50 [2]: 10 to 501 nM; MDCK-MDR1: Papp A-B ([3]; A-B direction): 0.06 10^−6, cm/s; MDCK-MDR1: Papp B-A ([3]; B-A direction): 7.34 10^−6, cm/s; MDCK-MDR1: Efflux ([3]; efflux ratio): 121
Cc1cnc(-c2ccc(-c3ccc(N(C)C4CC5CCC(N5)C4F)nn3)c(O)c2)o1 (single isomer, unassigned) [Compound 48B]	0.01 to 15 nM	67%	84%	6.56 ×10⁻⁶ cm/s	24.5 ×10⁻⁶ cm/s	4	16 to 50 nM	–	EC50 [2]: 16 to 50 nM
Cc1ccc(-c2ccc(-c3ccc(N(C)[C@@H]4C[C@H]5CC[C@H](N5)[C@@H]4F)nn3)c(O)c2)nn1 (single isomer, unassigned) [Compound 25A]	0.01 to 15 nM	99%	99%	1.79 ×10⁻⁶ cm/s	55 ×10⁻⁶ cm/s	31	101 to 500 nM	101 to 500 nM	–
CN(c1ccc(-c2cc3oc(C(=O)N4CCC4)cc3cc2O)nn1)[C@@H]1C[C@H]2CC[C@H](N2)[C@@H]1F [Compound 112A, azetidin-1-yl(6-(6-(((1S,2S,3R,5R)-2-fluoro-8-azabicyclo[3.2.1]octan-3-yl)(methyl)amino)pyridazin-3-yl)-5-hydroxybenzofuran-2-yl)methanone]	–	–	–	–	–	–	–	–	EC50 [6, 11]: 51 to 100 nM; EC50 [1, 12]: 0.01 to 15 nM; EC50 [7, 13]: 51 to 100 nM; MDCK-MDR1: % Recov A-B ([3]; A-B): 95%; MDCK-MDR1: % Recov B-A ([3]; B-A): 78%; Papp A→B at 120 min, 5 μM ([4]; A-B): 0.6 ×10⁻⁶ cm/s; Papp B→A at 120 min, 5 μM ([4]; B-A): 43.8 ×10⁻⁶ cm/s; efflux ratio at 120 min, 5 μM [5]: 74
CC#Cc1ccc(-c2ccc(N(C)[C@@H]3C[C@H]4CC[C@H](N4)[C@@H]3F)nn2)c(O)c1 (single isomer, unassigned) [Compound 30A]	0.01 to 15 nM	35%	55%	11.1 ×10⁻⁶ cm/s	19.7 ×10⁻⁶ cm/s	2	16 to 50 nM	51 to 100 nM	–
CN(c1ccc(-c2cc3oc(C(=O)N4CCC4)cc3cc2O)nn1)[C@H]1C[C@@H]2CC[C@H]([C@H]1F)N2C [Compound 107B, azetidin-1-yl(6-(6-(((1R,2R,3S,5S)-2-fluoro-8-methyl-8-azabicyclo[3.2.1]octan-3-yl)(methyl)amino)pyridazin-3-yl)-5-hydroxybenzofuran-2-yl)methanone]	–	–	–	–	–	–	–	–	mHTT protein EC50 [6, 11]: E (501 ≤ E ≤ 10.000); EC50 [1, 12]: 16 to 50 nM; EC50 [7, 13]: 101 to 500 nM; MDCK-MDR1: % Recov A-B ([3]; A-B): 76%; MDCK-MDR1: % Recov B-A ([3]; B-A): 84%; Papp A→B at 120 min, 5 μM ([4]; A-B): 0.99 ×10⁻⁶ cm/s; Papp B→A at 120 min, 5 μM ([4]; B-A): 46.3 ×10⁻⁶ cm/s; efflux ratio at 120 min, 5 μM [5]: 47
CN(C)C(=O)c1cc2cc(O)c(-c3ccc(N(C)[C@H]4C[C@@H]5CC[C@@H](N5)[C@H]4F)nn3)cc2o1 [Compound 9B, 6-(6-(((1R,2R,3S,5S)-2-fluoro-8-azabicyclo[3.2.1]octan-3-yl)(methyl)amino)pyridazin-3-yl)-5-hydroxy-N,N-dimethylbenzofuran-2-carboxamide]	16 to 50 nM	88%	100%	0.62 ×10⁻⁶ cm/s	48.2 ×10⁻⁶ cm/s	78	101 to 500 nM	101 to 500 nM	–
CN(C)C(=O)c1cc2cc(O)c(-c3ccc(N(C)[C@@H]4C[C@H]5CC[C@H](N5)[C@@H]4F)nn3)cc2o1 [Compound 9A, 6-(6-(((1S,2S,3R,5R)-2-fluoro-8-azabicyclo[3.2.1]octan-3-yl)(methyl)amino)pyridazin-3-yl)-5-hydroxy-N,N-dimethylbenzofuran-2-carboxamide]	0.01 to 15 nM	108%	111%	0.76 ×10⁻⁶ cm/s	61.1 ×10⁻⁶ cm/s	80	51 to 100 nM	16 to 50 nM	–
CN(c1ccc(-c2ccc(C#N)cc2O)nn1)[C@H]1C[C@@H]2CC[C@@H](N2)[C@H]1F [Compound 38B, 4-(6-(((1R,2R,3S,5S)-2-fluoro-8-azabicyclo[3.2.1]octan-3-yl)(methyl)amino)pyridazin-3-yl)-3-hydroxybenzonitrile]	16 to 50 nM	95%	102%	18.9 ×10⁻⁶ cm/s	47.1 ×10⁻⁶ cm/s	2	16 to 50 nM	16 to 50 nM	–
CN(c1ccc(-c2cc3nnccc3cc2O)nn1)[C@@H]1C[C@H]2CC[C@H](N2)[C@@H]1F [Compound 89A, 7-(6-(((1S,2S,3R,5R)-2-fluoro-8-azabicyclo[3.2.1]octan-3-yl)(methyl)amino)pyridazin-3-yl)cinnolin-6-ol]	16 to 50 nM	92%	106%	1.31 ×10⁻⁶ cm/s	67.3 ×10⁻⁶ cm/s	51	101 to 500 nM	101 to 500 nM	–
CN(c1ccc(-c2cc3ncn(C)c(=O)c3cc2O)nn1)[C@H]1C[C@@H]2CC[C@H]([C@H]1F)N2C [Compound 101B, 7-(6-(((1R,2R,3S,5S)-2-fluoro-8-methyl-8-azabicyclo[3.2.1]octan-3-yl)(methyl)amino)pyridazin-3-yl)-6-hydroxy-3-methylquinazolin-4(3H)-one]	–	–	–	–	–	–	–	–	EC50 [6, 11]: 51 to 100 nM; EC50 [1, 12]: 0.01 to 15 nM; EC50 [7, 13]: 51 to 100 nM; MDCK-MDR1: % Recov A-B ([3]; A-B): 118%; MDCK-MDR1: % Recov B-A ([3]; B-A): 119%; Papp A→B at 120 min, 5 μM ([4]; A-B): 2.41 ×10⁻⁶ cm/s; Papp B→A at 120 min, 5 μM ([4]; B-A): 59.1 ×10⁻⁶ cm/s; efflux ratio at 120 min, 5 μM [5]: 24
